According to paper PMC5609127 (ACS Chemical Neuroscience, 2017):

Assays:
RXRα–NURR1 heterodimer = RXRα–NURR1 heterodimer (Homo sapiens, UniProt P19793); assay: BRET2 heterodimerization assay; conditions: for NURR1–RXRα vs RXRα–RXRα selectivity: BRET2 potency ratio heterodimer vs homodimer
RXRα–RXRα homodimer = biological target: T1, RXRα–RXRα homodimer (Homo sapiens, UniProt P19793); assay: BRET2 homodimerization assay
T1 sequence (P19793 1-462) 1: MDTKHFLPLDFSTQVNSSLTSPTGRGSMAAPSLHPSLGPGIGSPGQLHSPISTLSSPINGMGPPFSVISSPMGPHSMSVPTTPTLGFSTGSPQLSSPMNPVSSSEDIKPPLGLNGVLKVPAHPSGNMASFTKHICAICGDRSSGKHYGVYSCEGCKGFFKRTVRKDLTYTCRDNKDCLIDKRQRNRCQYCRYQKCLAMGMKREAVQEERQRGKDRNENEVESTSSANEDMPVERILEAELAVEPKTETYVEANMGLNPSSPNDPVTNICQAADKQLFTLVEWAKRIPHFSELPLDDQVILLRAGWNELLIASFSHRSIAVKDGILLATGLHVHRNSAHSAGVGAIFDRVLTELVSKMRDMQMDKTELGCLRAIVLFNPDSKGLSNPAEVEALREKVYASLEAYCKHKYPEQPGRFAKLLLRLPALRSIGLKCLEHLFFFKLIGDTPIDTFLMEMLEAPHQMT
T1 sequence (P19793 1-462) 2: T1 sequence (P19793 1-462) 1

RXRα [1] = biological target: T2, RXRα (Homo sapiens, UniProt P19793); assay: Mammalian two-hybrid; format: cell-based; conditions: for agonist character in M2H assay: agonist format
T2 sequence (P19793 1-462): T1 sequence (P19793 1-462) 1

RXRα [2] = biological target: T3, RXRα (Homo sapiens, UniProt P19793); assay: Fluorescence polarization; format: biochemical; conditions: for agonist character in FP assay: agonist format
T3 sequence (P19793 227-458 limits assumed): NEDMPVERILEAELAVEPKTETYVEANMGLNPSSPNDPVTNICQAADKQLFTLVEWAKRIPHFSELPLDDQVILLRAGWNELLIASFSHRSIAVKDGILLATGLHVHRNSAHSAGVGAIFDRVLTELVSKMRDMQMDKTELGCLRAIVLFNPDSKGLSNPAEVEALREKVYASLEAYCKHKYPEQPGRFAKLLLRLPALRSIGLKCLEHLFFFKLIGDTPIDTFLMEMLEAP

RXRα [3] = biological target: T3, RXRα; assay: Fluorescence polarization competition assay against LG100268; format: biochemical; conditions: for antagonist character in FP competition assay: competition against LG100268 (50 nM)
RXRα [4] = biological target: T2, RXRα; assay: M2H luciferase competition assay against LG100268; format: cell-based; conditions: ligand in the 10–40 μM range after stimulation with LG100268 (10 nM)
[5] = FP/EC50, His6-RXRα-LBD 1 μM, fluorescein-labeled D22 coactivator peptide 0.1 μM

Chain of RXRα–NURR1 heterodimer (P43354 whole entry partner, one chain of several): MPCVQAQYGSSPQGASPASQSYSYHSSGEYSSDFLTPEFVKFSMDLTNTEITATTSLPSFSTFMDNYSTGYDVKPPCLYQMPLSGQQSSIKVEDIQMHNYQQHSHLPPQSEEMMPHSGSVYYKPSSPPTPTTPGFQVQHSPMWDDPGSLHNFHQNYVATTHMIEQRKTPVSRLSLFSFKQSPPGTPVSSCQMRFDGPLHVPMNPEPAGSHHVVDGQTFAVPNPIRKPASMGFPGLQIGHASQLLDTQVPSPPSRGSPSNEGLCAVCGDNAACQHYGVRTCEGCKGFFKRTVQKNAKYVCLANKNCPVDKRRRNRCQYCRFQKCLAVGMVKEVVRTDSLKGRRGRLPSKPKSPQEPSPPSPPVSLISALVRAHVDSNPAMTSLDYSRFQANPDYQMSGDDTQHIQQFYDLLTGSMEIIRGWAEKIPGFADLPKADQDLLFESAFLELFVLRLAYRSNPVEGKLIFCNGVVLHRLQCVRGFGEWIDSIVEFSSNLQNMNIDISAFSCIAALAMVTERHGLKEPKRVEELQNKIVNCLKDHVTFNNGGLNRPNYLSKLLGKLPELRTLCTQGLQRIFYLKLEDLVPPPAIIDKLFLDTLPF

EC50 (RXRα–NURR1 heterodimer) [nM] | NURR1–RXRα vs RXRα–RXRα selectivity (RXRα–NURR1 heterodimer) [fold] | EC50 (RXRα–RXRα homodimer) [nM] | EC50 (RXRα [1]) [nM] | EC50 (RXRα [2]; [5]) [nM] | agonist character in M2H assay (RXRα [1]) | agonist character in FP assay (RXRα [2]) | EC50 (RXRα [2]; potency range in FP assay) [nM] | bias toward RXRα homodimers over RXRα–NURR1 heterodimers (factor) (RXRα–RXRα homodimer; BRET2) | IC50 (RXRα [3]) [nM] | antagonist character in FP competition assay (RXRα [3]) | effect in M2H competition assay (RXRα [4]) | activity in BRET2 assay (RXRα–NURR1) (RXRα–NURR1 heterodimer) | activity in BRET2 assay (RXRα–RXRα) (RXRα–RXRα homodimer) | Compound
5.01 | 20 | 100 | 18 ± 10 | 170 ± 80 |  |  |  |  |  |  |  |  |  | CCCc1cccc(-c2cc(/C=C/C(=O)O)ccc2O)c1 [ligand 5, (E)-3-(6-Hydroxy-3′-propyl-[1,1′-biphenyl]-3-yl)acrylic Acid]
79.4 | 0.4 | 31.6 |  | 1020 ± 60 | full agonism | full agonism | 1000 to 10000 |  |  |  |  |  |  | Cc1ccc(-c2ccccc2)cc1-c1cc(/C=C/C(=O)O)ccc1O [ligand 7, (E)-3-(6-Hydroxy-6′-methyl-[1,1′:3′,1″-terphenyl]-3-yl)acrylic Acid]
158 | 0.1 | 20 |  |  |  | partial agonism |  | 10 | 48500 ± 4600 | partial antagonism | clear decrease in luciferase expression |  |  | C=CCc1ccc(OCCC)c(-c2cc(/C=C/C(=O)O)ccc2O)c1 [ligand 9, (E)-3-(5′-Allyl-6-hydroxy-2′-propoxy-[1,1′-biphenyl]-3-yl)acrylic Acid]
> 10000 |  | > 10000 |  |  |  |  |  |  | 46900 ± 5900 | full antagonism | clear decrease in luciferase expression | did not show appreciable activity | did not show appreciable activity | C=CCc1ccc(OCCCCCC)c(-c2cc(/C=C/C(=O)O)ccc2O)c1 [ligand 10, (E)-3-(5′-Allyl-2′-(hexyloxy)-6-hydroxy-[1,1′-biphenyl]-3-yl)acrylic Acid]

Continued, molecule first:

Compound | EC50 (RXRα–NURR1 heterodimer) [nM] | NURR1–RXRα vs RXRα–RXRα selectivity (RXRα–NURR1 heterodimer) [fold] | EC50 (RXRα–RXRα homodimer) [nM] | EC50 (RXRα [1]) [nM] | EC50 (RXRα [2]; [5]) [nM] | agonist character in M2H assay (RXRα [1]) | agonist character in FP assay (RXRα [2]) | EC50 (RXRα [2]; potency range in FP assay) [nM] | bias toward RXRα homodimers over RXRα–NURR1 heterodimers (factor) (RXRα–RXRα homodimer; BRET2) | IC50 (RXRα [3]) [nM] | antagonist character in FP competition assay (RXRα [3]) | effect in M2H competition assay (RXRα [4]) | activity in BRET2 assay (RXRα–NURR1) (RXRα–NURR1 heterodimer) | activity in BRET2 assay (RXRα–RXRα) (RXRα–RXRα homodimer)
O=C(O)/C=C/c1ccc(O)c(-c2cccc(-c3ccccc3)c2)c1 [ligand 2, (E)-3-(6-Hydroxy-[1,1′:3′,1″-terphenyl]-3-yl)acrylic Acid] | 3.16 | 10 | 31.6 | 85 ± 9 | 140 ± 23 |  |  |  |  |  |  |  |  | 
O=C(O)/C=C/c1ccc(O)c(-c2cccc(Cc3ccccc3)c2)c1 [ligand 3, (E)-3-(3′-Benzyl-6-hydroxy-[1,1′-biphenyl]-3-yl)acrylic Acid] | 2.51 | 8 | 20 | 92 ± 36 | 142 ± 9 |  |  |  |  |  |  |  |  | 
CC(C)c1cccc(-c2cc(/C=C/C(=O)O)ccc2O)c1 [ligand 4, (E)-3-(6-Hydroxy-3′-isopropyl-[1,1′-biphenyl]-3-yl)acrylic Acid] | 0.794 | 25 |  | 5.8 ± 1.8 | 89 ± 7 |  |  |  |  |  |  |  |  | 
Cc1c(-c2ccccc2)cccc1-c1cc(/C=C/C(=O)O)ccc1O [ligand 6, (E)-3-(6-Hydroxy-2′-methyl-[1,1′:3′,1″-terphenyl]-3-yl)acrylic Acid] | 794 | 0.2 | 158 | > 2500 | 9900 ± 2500 | full agonism | full agonism | 1000 to 10000 |  |  |  |  |  | 
